Patent US7081984B1, “Non-linear optical devices and materials therefor” (Qinetiq Limited, priority 1999, dated 2006)
“Also recorded” adds a separate entry of the source. Like-named read-outs stand apart in the source and are kept apart here.

Legend:
[1] = Kurtz and Perry assessment of phase matching properties; assay type: physicochemical; details: graded powders 550 μm to 40 μm, 12 ns pulses at 1064 nm, fixed input pulse energy
Description: The phase matching properties of those more promising materials which performed well in the initial screening have been evaluated using the well established Kurtz and Perry technique (J Appl Phys, 1968, 39, 3798). In this method the SHG intensity (λ=532 nm) is measured as a function of the particle size for a fixed input pulse energy. […] The consequence of this is that the harmonic fields can build up in amplitude thus making the material more desirable for SHG applications.
To perform the Kurtz and Perry test powdered samples of the materials were graded using a mechanical shaker set up with a set of standard sieves (550 μm to 40 μm). The graded powders were then mounted in a thin aluminium holder placed between two glass slides. The following criteria was used to ensure the validity of the method: r<L<D where, • r=average particle size • L=thickness of the powdered sample (i.e. thickness of the aluminium spacer) • D=diameter of the laser beam incident on the sample. In the present experiments, there was at least an order of magnitude difference between these parameters.
The same laser as before was used to provide 12 ns FWHM pulses at 1064 nm. […] The magnitude of the SHG signal was measured as the number of counts using an Optical Multichannel Analyser (OMA) with an intensified array. This was preferred to a photomultiplier tube as it enabled the presence of any fluorescence or abnormal spectral emissions from the sample, for example due to damage etc., to be determined.

[2] = Initial screening of SHG response of powdered samples at 1064 nm; assay type: physicochemical; details: ungraded powder between glass plates, pulsed Nd:YAG laser 1064 nm, green light judged by eye against ungraded urea or ADP
Description: Samples of all of the materials prepared as described above were first subjected to an initial screening with the results shown in Table 1. For this examination ungraded (as to size) powdered samples of each material were sandwiched between two glass plates which were then held in the path of a pulsed Nd:YAG laser operating at 1064 nm. (Model SL804 from Spectron Laser Systems Ltd). The SHG response was judged by viewing the intensity of green light generated (viewed through laser goggles which passed green light but stopped the fundamental 1064 nm radiation). The SHG activity was qualitatively compared to that of a reference sample which was either ungraded urea or ammonium dihydrogen phosphate (ADP).

[3] = Crystal stability on storage; assay type: physicochemical; details: on standing after removal from growing solution or in sealed container
[4] = crystals grown from solution by lowering temperature
Description: Crystals of M4, M35 and M3 were grown from solution by lowering the temperature of the saturated solutions. The crystal growth equipment consists of a heated tank of water into which the vessel containing the saturated solution of the material is held. The glass tank is heated through a UV block filter by an infra-red lamp. The temperature is controlled by a mercury contact thermometer. The glass tank is covered by aluminium foil to exclude UV in sunlight from entering the glass tank.
(§1) Crystals of M4 have been grown using the equipment described above, both from ethanol and IPA by reduction of temperature of the saturated solutions (12 g of M4 in 820 ml of ethanol) from 40° C. to 25° C. A seed crystal, which had been previously washed with a solvent was suspended from a stirrer and carefully introduced into the saturated solution. […] Several temperature decay rates were tried.
The solubility of M35 has been determined in isopropyl alcohol/water (10:1 ratio) mixture over a temperature range of 5° C. to 40° C.

[5] = judged by eye
Description: The capability for novel materials of the invention to achieve frequency doubling into the blue area of the spectrum was examined. The light source for this investigation was a MOPO (Master Oscillator Power Oscillator) model 730-10 pumped by GCR 270-10 Nd:YAG laser (supplied by Spectra Physics). The incident pulse width output from this laser ranged from 4 ns to 6 ns. Light of a specified wavelength was directed onto a sample sandwiched between two plates in a sample holder. In order to determine the energy which was incident on a sample for each test wavelength, the sample holder was movable in and out of the light beam and an energy meter was located behind the sample position so that the light beam would be directed onto the meter when a sample was not in position. The test wavelengths used were 950 nm, 850 nm, 800 nm and 780 nm. The energy meter was a Scientech AD30 meter employing a calorimetric detector type AC2501H supplied by Scientech.
Samples of the M4, M3 and M35 materials were tested for frequency doubling effect at each of the test wavelengths, the performance of each sample being judged qualitatively by eye by examination of the frequency doubled radiation scattered from the sample. These qualatative assessments were compared with that of a similarly prepared sample of urea having the same particle size as the materials of the invention. […] The M3 and M4 samples were ungraded while the M35 sample was a 212–300 μm graded sample.

[6] = Description: as §1
[7] = transmission spectrum
[8] = wavelength 780 nm, energy 16.7 mJ
[9] = wavelength 800 nm, energy 14.8 mJ
[10] = wavelength 850 nm, energy 12.3 mJ

Compound	Phase matching (SHG signal level at 532 nm as a function of particle size) [1]	SHG Response [2]	SHG activity of grown crystals [4]	Frequency doubling compared with urea [5, 8]	Frequency doubling compared with urea [5, 9]	Frequency doubling compared with urea [5, 10]	Frequency doubling compared with urea ([5]; wavelength 950 nm, energy 9 mJ)	other results
N.O=P(O)(O)O [ADP, ammonium dihydrogen phosphate, reference compound]	phase matching materials	–	–	–	–	–	–	–
thiomorpholinium 4-hydroxybenzoate [TM4]	–	slightly better than for ADP	–	–	–	–	–	Stability of crystals [3]: unstable, with the crystals becoming opaque over time
Morpholinium 3-fluoro-4-hydroxybenzoate [Example M3F4]	–	slightly weaker than that of urea	–	–	–	–	–	–
dimorpholinium 2,3,5,6-tetrafluoro-4-hydroxybenzoate [Example M24F4]	–	weaker than that of urea but better than for ADP	–	–	–	–	–	–
NC(N)=O [urea, reference compound]	phase matching materials	–	–	–	–	–	–	–
Morpholinium 4-hydroxybenzoate [Example M4]	does not decrease for increasing particle size	better than for urea	high SHG activity	Slightly less	Slightly less	Slightly less	Better	Relative solubility ([6]; IPA compared with ethanol): less soluble in IPA; Amount in saturated solution ([6]; in 820 ml of ethanol, saturated solution, 40° C.): 12 g
Morpholinium 3-hydroxybenzoate [Example M3]	does not decrease for increasing particle size	slightly weaker than urea	exhibit SHG activity	Less	Much less	Less	Slightly less	–
thiomorpholinium 3,5-dihydroxybenzoate [TM35]	–	slightly better than for urea	–	–	–	–	–	–
Morpholinium 3,5-dihydroxybenzoate [Example M35]	does not decrease for increasing particle size	slightly better than urea	high SHG activity	better	slightly less	same or better	same or better	Optical transparency limit of single crystal [7]: ≥ 350 mm; Stability of crystals [3]: stable and do not show any deterioration in quality
Morpholinium 4-hydroxycinnamate [Example M4HCA]	–	greater than that of urea; also recorded: better than urea	–	–	–	–	–	–
